Data taken from the NIST ThermoML archive (doi:10.1016/j.fluid.2007.12.007).

Assay: xn = mol fraction of the nth substance listed
Details: 101 kPa, Liquid

CC(O)CCO (centres undefined) [1,3-butanediol] + NC=O
Details | speed of sound [m/s] | viscosity [mPa·s]
293.15 K, x2 = 0.1061 | 1539 | 99.92
293.15 K, x2 = 0.2004 | 1536.3 | 78.22
293.15 K, x2 = 0.3068 | 1537.2 | 59.74
293.15 K, x2 = 0.4026 | 1538.5 | 46.12
293.15 K, x2 = 0.5033 | 1543.7 | 34.62
293.15 K, x2 = 0.6046 | 1550.4 | 25.02
293.15 K, x2 = 0.7013 | 1561.2 | 17.54
293.15 K, x2 = 0.8073 | 1577.3 | 10.47
293.15 K, x2 = 0.9058 | 1596.6 | 6.546
298.15 K, x2 = 0.1061 | 1521.7 | 74.72
298.15 K, x2 = 0.2004 | 1518.2 | 57.5
298.15 K, x2 = 0.3068 | 1518.3 | 43.1
298.15 K, x2 = 0.4026 | 1519.5 | 32.2
298.15 K, x2 = 0.5033 | 1524.6 | 23.74
298.15 K, x2 = 0.6046 | 1531.3 | 17
298.15 K, x2 = 0.7013 | 1542.5 | 12
298.15 K, x2 = 0.8073 | 1559.5 | 7.526
298.15 K, x2 = 0.9058 | 1580.2 | 5.001
303.15 K, x2 = 0.1061 | 1503.9 | 53.07
303.15 K, x2 = 0.2004 | 1499.8 | 40.31
303.15 K, x2 = 0.3068 | 1499.9 | 28.9
303.15 K, x2 = 0.4026 | 1501.1 | 21.09
303.15 K, x2 = 0.5033 | 1506.5 | 15.04
303.15 K, x2 = 0.6046 | 1513.8 | 10.33
303.15 K, x2 = 0.7013 | 1525.7 | 7.023
303.15 K, x2 = 0.8073 | 1543.8 | 4.543
303.15 K, x2 = 0.9058 | 1566.3 | 3.526
308.15 K, x2 = 0.1061 | 1488.7 | 40.36
308.15 K, x2 = 0.2004 | 1484.2 | 30.96
308.15 K, x2 = 0.3068 | 1483.6 | 21.98
308.15 K, x2 = 0.4026 | 1484.8 | 15.66
308.15 K, x2 = 0.5033 | 1490.1 | 11.25
308.15 K, x2 = 0.6046 | 1497.6 | 7.455
308.15 K, x2 = 0.7013 | 1509.9 | 5.329
308.15 K, x2 = 0.8073 | 1528.7 | 3.578
308.15 K, x2 = 0.9058 | 1552.5 | 2.702
313.15 K, x2 = 0.1061 | 1475.5 | 31.06
313.15 K, x2 = 0.2004 | 1470.2 | 24.23
313.15 K, x2 = 0.3068 | 1468.8 | 17.48
313.15 K, x2 = 0.4026 | 1469.6 | 12.14
313.15 K, x2 = 0.5033 | 1474.7 | 8.414
313.15 K, x2 = 0.6046 | 1482.1 | 6.181
313.15 K, x2 = 0.7013 | 1494.6 | 4.545
313.15 K, x2 = 0.8073 | 1513.9 | 3.229
313.15 K, x2 = 0.9058 | 1538.9 | 2.626
318.15 K, x2 = 0.1061 | 1463.3 | 24.04
318.15 K, x2 = 0.2004 | 1457 | 18.62
318.15 K, x2 = 0.3068 | 1454.8 | 13.82
318.15 K, x2 = 0.4026 | 1455.1 | 9.999
318.15 K, x2 = 0.5033 | 1459.9 | 6.803
318.15 K, x2 = 0.6046 | 1467.1 | 4.697
318.15 K, x2 = 0.7013 | 1479.7 | 3.299
318.15 K, x2 = 0.8073 | 1499.4 | 2.478
318.15 K, x2 = 0.9058 | 1525.5 | 2.257

OCCCCO [1,4-butanediol] + NC=O
Details | speed of sound [m/s] | viscosity [mPa·s]
293.15 K, x2 = 0.1052 | 1606 | 64.53
293.15 K, x2 = 0.1988 | 1594.7 | 44
293.15 K, x2 = 0.3041 | 1585.7 | 30.1
293.15 K, x2 = 0.4002 | 1577.7 | 21.2
293.15 K, x2 = 0.5009 | 1572.5 | 15.13
293.15 K, x2 = 0.6022 | 1569.9 | 11.33
293.15 K, x2 = 0.6992 | 1574.7 | 7.998
293.15 K, x2 = 0.8051 | 1583.7 | 5.512
293.15 K, x2 = 0.905 | 1597.1 | 4.026
298.15 K, x2 = 0.1052 | 1592.6 | 48.08
298.15 K, x2 = 0.1988 | 1579.2 | 31.14
298.15 K, x2 = 0.3041 | 1568.5 | 19.82
298.15 K, x2 = 0.4002 | 1560.2 | 12.5
298.15 K, x2 = 0.5009 | 1553.9 | 8.021
298.15 K, x2 = 0.6022 | 1551.3 | 6.233
298.15 K, x2 = 0.6992 | 1556 | 4.971
298.15 K, x2 = 0.8051 | 1565.5 | 3.96
298.15 K, x2 = 0.905 | 1580.5 | 3.372
303.15 K, x2 = 0.1052 | 1580.1 | 38.03
303.15 K, x2 = 0.1988 | 1565.3 | 24.03
303.15 K, x2 = 0.3041 | 1553.4 | 13.42
303.15 K, x2 = 0.4002 | 1544.2 | 7.715
303.15 K, x2 = 0.5009 | 1537.7 | 4.771
303.15 K, x2 = 0.6022 | 1534.5 | 3.722
303.15 K, x2 = 0.6992 | 1539.5 | 3.062
303.15 K, x2 = 0.8051 | 1550 | 2.658
303.15 K, x2 = 0.905 | 1566.3 | 2.754
308.15 K, x2 = 0.1052 | 1568.8 | 30.12
308.15 K, x2 = 0.1988 | 1552 | 18.56
308.15 K, x2 = 0.3041 | 1539.2 | 9.498
308.15 K, x2 = 0.4002 | 1529.4 | 4.663
308.15 K, x2 = 0.5009 | 1522.1 | 2.696
308.15 K, x2 = 0.6022 | 1518.6 | 2.188
308.15 K, x2 = 0.6992 | 1524 | 1.87
308.15 K, x2 = 0.8051 | 1534.8 | 1.924
308.15 K, x2 = 0.905 | 1552.1 | 2.366
313.15 K, x2 = 0.1052 | 1558.4 | 23.74
313.15 K, x2 = 0.1988 | 1539.9 | 13.81
313.15 K, x2 = 0.3041 | 1525.4 | 6.541
313.15 K, x2 = 0.4002 | 1514.6 | 2.871
313.15 K, x2 = 0.5009 | 1506.5 | 1.619
313.15 K, x2 = 0.6022 | 1503 | 1.272
313.15 K, x2 = 0.6992 | 1508 | 1.079
313.15 K, x2 = 0.8051 | 1519.6 | 1.525
313.15 K, x2 = 0.905 | 1537.9 | 1.998
318.15 K, x2 = 0.1052 | 1546.2 | 18.95
318.15 K, x2 = 0.1988 | 1525.7 | 10.75
318.15 K, x2 = 0.3041 | 1510.2 | 5.094
318.15 K, x2 = 0.4002 | 1498.6 | 2.024
318.15 K, x2 = 0.5009 | 1490.6 | 1.167
318.15 K, x2 = 0.6022 | 1486.8 | 1.003
318.15 K, x2 = 0.6992 | 1491.7 | 0.9823
318.15 K, x2 = 0.8051 | 1503.8 | 1.242
318.15 K, x2 = 0.905 | 1524 | 1.706

NC=O [formamide] + CCC(C)O
Details | speed of sound [m/s] | viscosity [mPa·s]
293.15 K, x1 = 0.1043 | 1264.1 | 4.14
293.15 K, x1 = 0.2043 | 1295.8 | 4.08
293.15 K, x1 = 0.3056 | 1329.1 | 4.046
293.15 K, x1 = 0.4083 | 1364.5 | 4.041
293.15 K, x1 = 0.5093 | 1401.3 | 4.026
293.15 K, x1 = 0.6063 | 1438.8 | 3.99
293.15 K, x1 = 0.7068 | 1480.1 | 3.929
293.15 K, x1 = 0.8042 | 1522.5 | 3.859
293.15 K, x1 = 0.9024 | 1568 | 3.77
298.15 K, x1 = 0.1043 | 1243.5 | 3.044
298.15 K, x1 = 0.2043 | 1274.8 | 3.064
298.15 K, x1 = 0.3056 | 1308 | 3.113
298.15 K, x1 = 0.4083 | 1343.4 | 3.19
298.15 K, x1 = 0.5093 | 1380.4 | 3.261
298.15 K, x1 = 0.6063 | 1418.1 | 3.31
298.15 K, x1 = 0.7068 | 1459.9 | 3.338
298.15 K, x1 = 0.8042 | 1503.4 | 3.351
298.15 K, x1 = 0.9024 | 1550.5 | 3.348
303.15 K, x1 = 0.1043 | 1225 | 2.516
303.15 K, x1 = 0.2043 | 1256.1 | 2.551
303.15 K, x1 = 0.3056 | 1289.2 | 2.617
303.15 K, x1 = 0.4083 | 1324.7 | 2.713
303.15 K, x1 = 0.5093 | 1361.9 | 2.8
303.15 K, x1 = 0.6063 | 1400 | 2.869
303.15 K, x1 = 0.7068 | 1442.6 | 2.918
303.15 K, x1 = 0.8042 | 1487.3 | 2.949
303.15 K, x1 = 0.9024 | 1536 | 2.966
308.15 K, x1 = 0.1043 | 1204.5 | 2.126
308.15 K, x1 = 0.2043 | 1235.7 | 2.167
308.15 K, x1 = 0.3056 | 1268.9 | 2.239
308.15 K, x1 = 0.4083 | 1304.5 | 2.339
308.15 K, x1 = 0.5093 | 1341.9 | 2.435
308.15 K, x1 = 0.6063 | 1380.6 | 2.512
308.15 K, x1 = 0.7068 | 1424.4 | 2.571
308.15 K, x1 = 0.8042 | 1470.5 | 2.611
308.15 K, x1 = 0.9024 | 1521 | 2.639
313.15 K, x1 = 0.1043 | 1185.6 | 1.802
313.15 K, x1 = 0.2043 | 1216.2 | 1.848
313.15 K, x1 = 0.3056 | 1249.3 | 1.927
313.15 K, x1 = 0.4083 | 1285.3 | 2.035
313.15 K, x1 = 0.5093 | 1323.1 | 2.138
313.15 K, x1 = 0.6063 | 1362.1 | 2.224
313.15 K, x1 = 0.7068 | 1406.8 | 2.291
313.15 K, x1 = 0.8042 | 1453.9 | 2.338
313.15 K, x1 = 0.9024 | 1506.1 | 2.375
318.15 K, x1 = 0.1043 | 1167.6 | 1.543
318.15 K, x1 = 0.2043 | 1197.6 | 1.593
318.15 K, x1 = 0.3056 | 1230.7 | 1.677
318.15 K, x1 = 0.4083 | 1266.9 | 1.791
318.15 K, x1 = 0.5093 | 1305 | 1.903
318.15 K, x1 = 0.6063 | 1344.2 | 1.998
318.15 K, x1 = 0.7068 | 1389.5 | 2.072
318.15 K, x1 = 0.8042 | 1437.6 | 2.129
318.15 K, x1 = 0.9024 | 1491.3 | 2.175
